melting point	SMILES
138.7 to 139.2 °C	CN(C(=O)OCc1ccccc1)C1CCN(CC2(C)Cn3cc([N+](=O)[O-])nc3O2)CC1 (centres unmarked)
181 to 182 °C	CC(C)(C)OC(=O)N1CCC(N2CCN(C[C@@]3(C)Cn4cc([N+](=O)[O-])nc4O3)CC2)CC1
193 to 194 °C	CC1(CN2CCN(C(C)(C)C)C(=O)C2)Cn2cc([N+](=O)[O-])nc2O1 (centres unmarked)
138.7 to 139.9 °C	C[C@]1(CN2CCC(c3ccc(C(F)(F)F)cc3)CC2)Cn2cc([N+](=O)[O-])nc2O1
126.8 to 127.9 °C	CC1(COc2ccc(OC(F)(F)F)cc2)Cn2cc([N+](=O)[O-])nc2O1 (centres unmarked)
132 to 136 °C	C[C@]1(CN2CCC(OCc3ccc(Cl)c(Cl)c3)CC2)Cn2cc([N+](=O)[O-])nc2O1
254.1 to 254.7 °C	CC1(Cn2c(=O)n(-c3ccc(F)cc3)c3ccccc32)Cn2cc([N+](=O)[O-])nc2O1 (centres unmarked)
212 to 214 °C (dec.)	CC1(CN2CCN(C(=O)Nc3ccc(Cl)c(Cl)c3)CC2)Cn2cc([N+](=O)[O-])nc2O1 (centres unmarked)
261.3 to 263.3 °C	Cn1c(=O)n(CC2(C)Cn3cc([N+](=O)[O-])nc3O2)c2ccc(Cl)cc21 (centres unmarked)
161 to 163 °C	C[C@]1(COC(=O)N2CCN(Cc3ccc(Cl)cc3)CC2)Cn2cc([N+](=O)[O-])nc2O1
167 to 168 °C	COc1ccc(NC(=O)N2CCN(CC3(C)Cn4cc([N+](=O)[O-])nc4O3)CC2)cc1 (centres unmarked)
204 to 206 °C (dec.)	CC1(CN2CCN(C(=S)Nc3ccc(Cl)cc3)CC2)Cn2cc([N+](=O)[O-])nc2O1 (centres unmarked)
104 to 106 °C	CC(C)(C)OC(=O)CNC(=O)OCC1(C)Cn2cc([N+](=O)[O-])nc2O1 (centres unmarked)
116 to 118 °C	CC1(CN2CCN(C(=O)c3ccc(-c4ccccc4)cc3)CC2)Cn2cc([N+](=O)[O-])nc2O1 (centres unmarked)
163 to 166 °C	CC1(CSc2nc3ccccc3o2)Cn2cc([N+](=O)[O-])nc2O1 (centres unmarked)
130.5 to 132.1 °C	CC1(CN2CCN(C(=O)OCc3ccccc3)CC2)Cn2cc([N+](=O)[O-])nc2O1.Cl (centres unmarked)
91.3 to 92.7 °C	C[C@]1(CN2CCC(OCC=Cc3ccccc3)CC2)Cn2cc([N+](=O)[O-])nc2O1
240.5 to 244.8 °C	CC(C)n1c(=O)n(CC2(C)Cn3cc([N+](=O)[O-])nc3O2)c2cc(Cl)ccc21 (centres unmarked)
171.3 to 172.2 °C	CC1(CNC(=O)OCc2ccccc2)Cn2cc([N+](=O)[O-])nc2O1 (centres unmarked)
93 to 95 °C	C[C@@]1(CN2CCN(Cc3ccc(C(F)(F)F)cc3)CC2)Cn2cc([N+](=O)[O-])nc2O1

melting point	SMILES
201 to 202.3 °C (dec.)	C[C@]1(CN2CCN(N=Cc3ccc(C(F)(F)F)cc3)CC2)Cn2cc([N+](=O)[O-])nc2O1 [Example 504]
227.5 to 229 °C	C[C@]1(COc2ccc(N3CCSCC3)cc2)Cn2cc([N+](=O)[O-])nc2O1
175.2 to 175.9 °C	CC1(CN2CCN(C(=O)Cc3ccccc3)CC2)Cn2cc([N+](=O)[O-])nc2O1 (centres unmarked)
112.5 to 115 °C	CN(CCOc1ccc(OC(F)(F)F)cc1)C[C@@]1(C)Cn2cc([N+](=O)[O-])nc2O1
162 to 163 °C	C[C@]1(CO)Cn2cc([N+](=O)[O-])nc2O1
130.5 to 132.1 °C	CC1(CN2CCN(C(=O)OCc3ccccc3)CC2)Cn2cc([N+](=O)[O-])nc2O1 (centres unmarked)
144 to 147 °C	COc1ccc(CN(C)C[C@@]2(C)Cn3cc([N+](=O)[O-])nc3O2)cc1
205.7 to 208.1 °C	CC1(CN2CCN(Cc3ccc(Br)cc3)C2=O)Cn2cc([N+](=O)[O-])nc2O1 (centres unmarked)
168.9 to 169.9 °C	CN(CC1(C)Cn2cc([N+](=O)[O-])nc2O1)C(=O)OCc1ccc(F)cc1 (centres unmarked)
228 to 229.5 °C	CC1(CN2CCN(c3nc4ccccc4o3)CC2)Cn2cc([N+](=O)[O-])nc2O1 (centres unmarked)
113 to 114 °C	CC1(CN2CCC(Oc3ccc(C(F)(F)F)cc3)CC2)Cn2cc([N+](=O)[O-])nc2O1 (centres unmarked)
101 to 103.6 °C	C[C@]1(CN2CCN(C(=O)NCc3ccc(C(F)(F)F)cc3)CC2)Cn2cc([N+](=O)[O-])nc2O1
208.2 to 211.5 °C	CCOC(=O)C1CCN(c2ccc(OC[C@@]3(C)Cn4cc([N+](=O)[O-])nc4O3)cc2)CC1
176.2 to 178.8 °C	CNCC1(C)Cn2cc([N+](=O)[O-])nc2O1.O=C(O)C(F)(F)F (centres unmarked)
140.6 to 142.8 °C	C[C@]1(CN2CCC(OCC=Cc3ccc(Cl)cc3)CC2)Cn2cc([N+](=O)[O-])nc2O1
202 to 204 °C	CC1(CN2CCN(S(=O)(=O)c3ccc(Cl)cc3)CC2)Cn2cc([N+](=O)[O-])nc2O1 (centres unmarked)
145 to 147.7 °C	C[C@]1(CN2CCN(c3cccnc3)CC2)Cn2cc([N+](=O)[O-])nc2O1
161 to 162 °C	CC1(CN2CCN(C(=O)c3ccc(C(F)(F)F)cc3)CC2)Cn2cc([N+](=O)[O-])nc2O1 (centres unmarked)
144 to 145 °C	CN(C(=O)OC[C@@]1(C)Cn2cc([N+](=O)[O-])nc2O1)c1ccc(OC(F)(F)F)cc1
223 to 227.8 °C	CC1(CN2CCN(c3ccc(-c4ccccc4)cc3)CC2)Cn2cc([N+](=O)[O-])nc2O1 (centres unmarked)

More lines, now with the values behind:

SMILES	melting point
CNC(C1CCN(c2ccc(Cl)cc2)CC1)[C@]1(C)Cn2cc([N+](=O)[O-])nc2O1 (some centres unmarked)	179.2 to 182.1 °C
CC1(COC(=O)N2CCN(c3ccc(OC(F)(F)F)cc3)CC2)Cn2cc([N+](=O)[O-])nc2O1 (centres unmarked)	138 to 140 °C
CC1(CN2CCN(C(=O)N3CCC(c4ccc(Cl)cc4)CC3)CC2)Cn2cc([N+](=O)[O-])nc2O1 (centres unmarked)	186 to 187 °C
CC1(CN2CCN(CCCn3c(=O)oc4ccccc43)CC2)Cn2cc([N+](=O)[O-])nc2O1 (centres unmarked)	123 to 126 °C
CC1(COc2ccc(N3CCN(Cc4ccc(C(F)(F)F)cc4)CC3)cc2)Cn2cc([N+](=O)[O-])nc2O1 (centres unmarked)	171.8 to 173.1 °C
CN(c1ccc(OC(F)(F)F)cc1)C1CCN(C[C@@]2(C)Cn3cc([N+](=O)[O-])nc3O2)CC1	133.2 to 134.4 °C
CC(C)(C)OC(=O)N1CCC(c2ccc(OC[C@@]3(C)Cn4cc([N+](=O)[O-])nc4O3)cc2)CC1	227.5 to 228.3 °C (dec.)
CC1(CN2CCN(C(=O)NCc3ccc(C(F)(F)F)cc3)CC2)Cn2cc([N+](=O)[O-])nc2O1 (centres unmarked)	201 to 202.5 °C
CNC(C1CCN(c2ccc(C(F)(F)F)cc2)CC1)[C@]1(C)Cn2cc([N+](=O)[O-])nc2O1 (some centres unmarked)	131.5 to 133.6 °C
C[C@]1(CN2CCN(C(=O)OCC=Cc3cccc(C(F)(F)F)c3)CC2)Cn2cc([N+](=O)[O-])nc2O1.O=C(O)/C=C\C(=O)O	136 to 138 °C
O=C(NCc1ccc(C(F)(F)F)cc1)N1CCC2(CC1)Cn1cc([N+](=O)[O-])nc1O2	215 to 217 °C
C[C@]1(CN2CCC(N3CCN(c4ccc(Cl)cc4)CC3)CC2)Cn2cc([N+](=O)[O-])nc2O1	226 to 228 °C
C[C@]1(COc2ccc(N3CCN(C(=O)c4ccc(OC(F)(F)F)cc4)CC3)cc2)Cn2cc([N+](=O)[O-])nc2O1	201.5 to 203.2 °C
O=[N+]([O-])c1cn2c(n1)O[C@@H](COc1ccc(N3CCC(Oc4ccc(OC(F)(F)F)cc4)CC3)cc1)C2	157 to 160 °C
C[C@]1(COC(=O)N2CCC(Oc3ccc(C(F)(F)F)cc3)CC2)Cn2cc([N+](=O)[O-])nc2O1	165 to 166 °C
C[C@]1(CN2CCN(C3CCN(C(=O)c4ccc(Cl)cc4)CC3)CC2)Cn2cc([N+](=O)[O-])nc2O1	218 to 220 °C
O=[N+]([O-])c1cn2c(n1)OC(CN1CCN(c3nc4ccccc4o3)CC1)C2 (centres unmarked)	206 to 209 °C (dec.)
CC1(CN2CCN(C(=O)OCc3ccc(C(=O)c4ccccc4)cc3)CC2)Cn2cc([N+](=O)[O-])nc2O1 (centres unmarked)	105 to 107 °C
CN(CCN1CCN(Cc2ccc(C(F)(F)F)cc2)CC1)C[C@@]1(C)Cn2cc([N+](=O)[O-])nc2O1	102 to 104.5 °C

SMILES	melting point
Cc1ccc(NC(=O)N2CCC3(CC2)Cn2cc([N+](=O)[O-])nc2O3)cc1	> 300 °C
CCOC(=O)N1CCN(C(=O)c2ccc(OC[C@@]3(C)Cn4cc([N+](=O)[O-])nc4O3)cc2)CC1	132 to 135 °C
C[C@]1(COC(=O)N2CCC(Nc3ccc(C(F)(F)F)cc3)CC2)Cn2cc([N+](=O)[O-])nc2O1	137 to 140 °C
C[C@]1(CN2CCC(N3CCN(Cc4ccc(OC(F)(F)F)cc4)CC3)CC2)Cn2cc([N+](=O)[O-])nc2O1	142 to 143 °C
C[C@]1(CN2CCN(C3CCN(C(=O)c4ccc(OC(F)(F)F)cc4)CC3)CC2)Cn2cc([N+](=O)[O-])nc2O1	133 to 134 °C
O=C(NCc1ccc(OC(F)(F)F)cc1)N1CCC2(CC1)Cn1cc([N+](=O)[O-])nc1O2	223 to 225 °C
O=C(CN1CCN(c2nc3ccccc3o2)CC1)N1CCC2(CC1)Cn1cc([N+](=O)[O-])nc1O2	260 to 263 °C (dec.)
CC(C)(C)OC(=O)N1CCN(CC2Cn3cc([N+](=O)[O-])nc3O2)CC1 (centres unmarked)	185 to 188 °C (dec.)
CN(CC1Cn2cc([N+](=O)[O-])nc2O1)C(=O)OCc1ccc(F)cc1 (centres unmarked)	124.5 to 128.1 °C
CC(C)(C)OC(=O)N1CC=C(c2ccc(OC[C@@]3(C)Cn4cc([N+](=O)[O-])nc4O3)cc2)CC1	183 to 189 °C (dec.)
Cc1nc(-c2ccc(Cl)cc2)sc1CN1CCN(C[C@@]2(C)Cn3cc([N+](=O)[O-])nc3O2)CC1	174.3 to 175.5 °C
C[C@]1(COc2cccc(N3CCN(C(=O)OCc4ccc(OC(F)(F)F)cc4)CC3)c2)Cn2cc([N+](=O)[O-])nc2O1	136.5 to 138 °C
C[C@]1(CN2CCC(NC(=O)OCc3ccc(OC(F)(F)F)cc3)CC2)Cn2cc([N+](=O)[O-])nc2O1	156.2 to 158.5 °C
C[C@]1(CN2CCC(NC(=O)OCc3ccc(C(F)(F)F)cc3)CC2)Cn2cc([N+](=O)[O-])nc2O1	141.2 to 144 °C
C[C@]1(CN2CCN(C3CCN(Cc4ccc(OC(F)(F)F)cc4)CC3)CC2)Cn2cc([N+](=O)[O-])nc2O1	140 to 141 °C
C[C@]1(CN2CCC(N3CCN(CC=Cc4ccc(OC(F)(F)F)cc4)CC3)CC2)Cn2cc([N+](=O)[O-])nc2O1	174 to 175 °C
O=C(Nc1ccc(F)cc1)N1CCC2(CC1)Cn1cc([N+](=O)[O-])nc1O2	238 to 240 °C (dec.)
O=C(NCC1Cn2cc([N+](=O)[O-])nc2O1)OCc1ccc(F)cc1 (centres unmarked)	164.6 to 165.1 °C
